Results published in patent publication EP0702551B1, “COMPOSITIONS AND METHODS FOR REPARATION AND PREVENTION OF FIBROTIC LESIONS” (MARGOLIN, Solomon B., priority 1993, dated 1994).
Where “and” joins values, the source holds several entries; their conditions need not be identical. Equal entries are not always repeated. Marks after values point to notes of the source that are not given here.

Experiments:
[1] = Acute toxicity (LD), cat; details: in vivo
Excerpt: The acute toxicity of the ingredient in the medical composition of the present invention which exerts the anti-fibrotic activity is as shown in the table below: […]

[2] = test system: fibrosis (interstitial hyperplasia); assay: Histopathological examination of rat lungs for fibrosis after three months of drug in the diet; type: in vivo; details: rats; for Lung Connective Tissue Score, Mean: 300 mg/kg (p.o.) in the diet for three months, score 0, 1, 2, 3 = degree of fibrosis, control mean 1.63, 300 mg/kg
Experimental: The results of a histopathological examination of the lungs of rats for fibrosis (interstitial hyperplasia) after receiving 300mg/kg body weight of pirfenidone in the diet for three months are summarized in Table 2. The individual microscopic readings of the lung are also shown in Table 2, where a score schedule of 0, 1, 2, and 3 reflects the degree of fibrosis.
The data in Table 2 reveal a statistically significant reduction in the amount of fibrosis in rats receiving pirfenidone as compared to placebo control rats (Group 1). The mean score for the controls (Group 1) was 1.63 +/-0.23, and for Group IV (pirfenidone, 300mg/kg body weight daily was 0.95 +/-0.23.
Student's T value was 2.43, with P less than 0.02 (highly significant statistically).

[3] = test system: PULMONARY INTERSTITIAL HYPERPLASIA (FIBROSIS); assay: Pulmonary interstitial hyperplasia (fibrosis) in dogs, oral capsules, microscopic scoring; type: in vivo, Beagle dogs; details: for Hyperplasia Scores 0 (number of dogs): 0 = normal tissue; for Hyperplasia Scores 1 (number of dogs): 1 = minimal; for Hyperplasia Scores 2 (number of dogs): 2 = moderate; for Hyperplasia Scores 3 (number of dogs): 3 = severe; for Incidence of Normal Lung: control 0/9
Experimental: The mean score for Group I (Control) was 2.11 +/-0.31, and for Group IV, which received pirfenidone, 150 mg/kg per day orally in capsules, was 0.22 +/-0.19.

[4] = test system: ASBESTOS-INDUCED PULMONARY IN[…]; assay: Asbestos-induced pulmonary interstitial fibrosis in hamsters; type: in vivo
Excerpt: In hamsters, pulmonary fibrosis induced with crysotile asbestos was removed following oral pirfenidone (Table 4).
The novel role of pirfenidone in the therapeutic repair of fibrotic lung tissue featuring removal of fibrotic lesions, and concomitant regeneration of normal lung tissue has been observed in experimental asbestosis by histopathological examination of lung tissue specimens under the light microscope, and electron microscopy (Table 4).
This was subsequently confirmed by ashing of lung specimens in a laboratory oven, and then determining the asbestos content.

[5] = test system: CYCLOPHOSPHAMIDE-INDUCED IN[…]; assay: Cyclophosphamide-induced interstitial fibrosis in mice; type: in vivo
Excerpt: In mice, pulmonary fibrosis induced with cyclophosphamide […] and is know to produce pulmonary fibrosis in patients as a side effect.

[6] = test system: Pulmonary fibrosis; assay: Clinical human open trial, pulmonary fibrosis; type: in vivo
Experimental: (§1) Clinical human open trials have been undertaken as follows: • 1. Pulmonary fibrosis diagnosed as caused by asbestos was treated with pirfenidone and closely and objectively followed in two subjects. […] Pulmonary fibrosis diagnosed as idiopathic in nature was treated with pirfenidone and closely and objectively followed in one subject for over two years. […] Two subjects suffered from frequency, severe nocturia, incontinence, constant urgency, and in the third these symptoms were less severe. Clinically, all had enlarged prostates that explained the symptoms. The results were dramatic in the eldest subject within two weeks of therapy. Nocturia of 6-7 trips (every 60-90 minutes) per night was reduced to 1 or 2 nightly (4-5 hours apart). In the other two patients, nocturia 3-4 times (every 2-3 hours) was reduced to once nightly 4-5 hours after retiring. […] Inhibition of excessive scar formation by direct application of pirfenidone ointment to skin lesions in 10 cases.

[7] = test system: Benign prostate hypertrophy; assay: Clinical human open trial, benign prostate hypertrophy; type: in vivo
Experimental: as §1

[8] = test system: Fibrosis of the ventricular myocardium; assay: Clinical human open trial, fibrosis of the ventricular myocardium; type: in vivo
Experimental: as §1

[9] = 300 mg/kg (p.o.), three months, 19 animals
[10] = group average, asbestos + 500 mg/kg/day in the diet two months, asbestos only 2.75+/-0.25
[11] = individual hamsters, asbestos + 500 mg/kg/day in the diet two months, 0 = normal tissue, 1 = minimal, 2 = moderate, 3 = severe, 500 mg/kg/day
[12] = GROUP II: cyclophosphamide 200 mg/kg i.p. plus 500 mg/kg/day p.o.

Cc1ccc(=O)n(-c2ccccc2)c1 [pirfenidone, 5-methyl-1-phenyl-2-(1H) pyridone]
LD50 ([1]; iv): 40 mg/kg
LD50 ([1]; po): 500 mg/kg
Lung Connective Tissue Score, Mean [2]: 0.95 +/-0.23
Lung Connective Tissue Score, Mean ([2]; listed as PIRFENIDONE): 0.95
Lung Connective Tissue Score 0, Total (animals) [2, 9]: 5
Lung Connective Tissue Score 1, Total (animals) [2, 9]: 11
Lung Connective Tissue Score 2, Total (animals) [2, 9]: 2
Lung Connective Tissue Score 3, Total (animals) [2, 9]: 1
Hyperplasia Scores 0 (number of dogs) ([3]; 25 mg/kg/day oral): 1
Hyperplasia Scores 1 (number of dogs) ([3]; 25 mg/kg/day oral): 1
Hyperplasia Scores 2 (number of dogs) ([3]; 25 mg/kg/day oral): 4
Hyperplasia Scores 3 (number of dogs) ([3]; 25 mg/kg/day oral): 0
Incidence of Normal Lung ([3]; 25 mg/kg/day oral): 1/6
Average Scores ([3]; 25 mg/kg/day oral, hyperplasia score 0-3, control 2.11+/-0.31): 1.50+/-0.34
Hyperplasia Scores 0 (number of dogs) ([3]; 75 mg/kg/day oral): 2
Hyperplasia Scores 1 (number of dogs) ([3]; 75 mg/kg/day oral): 2
Hyperplasia Scores 2 (number of dogs) ([3]; 75 mg/kg/day oral): 3
Hyperplasia Scores 3 (number of dogs) ([3]; 75 mg/kg/day oral): 1
Incidence of Normal Lung ([3]; 75 mg/kg/day oral): 2/8
Average Scores ([3]; 75 mg/kg/day oral, hyperplasia score 0-3, control 2.11+/-0.31): 1.38+/-0.38
Hyperplasia Scores 0 (number of dogs) ([3]; 150 mg/kg/day oral): 7
Hyperplasia Scores 1 (number of dogs) ([3]; 150 mg/kg/day oral): 2
Hyperplasia Scores 2 (number of dogs) ([3]; 150 mg/kg/day oral): 0
Hyperplasia Scores 3 (number of dogs) ([3]; 150 mg/kg/day oral): 0
Incidence of Normal Lung ([3]; 150 mg/kg/day oral): 7/9
Average Scores ([3]; 150 mg/kg/day orally in capsules, hyperplasia score 0-3, control 2.11+/-0.31, P<0.001, 150 mg/kg/day): 0.22 +/-0.19
Average Scores ([3]; 150 mg/kg/day orally in capsules, hyperplasia score 0-3, control 2.11+/-0.31, P<0.001, listed as Pirfenidone, 150 mg/kg/day): 0.22+/-0.15**
recurrence of asbestos-induced fibrosis ([4]; after drug had been discontinued for two months): did not recur
lung cell-imbedded asbestos fibers ([4]; electron microscope, confirmed by ashing of lung specimens and asbestos content): had been removed
Lung Density, Average ([4]; group average, asbestos + 500 mg/kg/day in the diet two months, asbestos only 2.53+/-0.23): 1.17+/-0.10
Pulmonary Fibrosis Score Electron Microscope, Average [4, 10]: 0.25+/-0.25
Pulmonary Fibrosis Score Light Microscope, Average [4, 10]: 1.00+/-0.41
pulmonary fibrosis induced with crysotile asbestos ([4]; hamsters, oral): removed
Pulmonary Fibrosis Score Electron Microscope [4, 11]: 0 (3×) and 1
Pulmonary Fibrosis Score Light Microscope [4, 11]: 0 and 2 and 1 (2×)
Lung Density ([4]; individual hamsters, asbestos by inhalation 5 days, 500 mg/kg/day orally in the diet for two months, beginning two months after exposure, 500 mg/kg/day): 0.98 and 1.04 and 1.26 and 1.41
Lung Dry Wt. [5, 12]: 52.4+/-0.9 Mg.
Lung FIBROSIS Scores (N/N), incidence of scores 3.0 or less [5, 12]: 3/5
Lung FIBROSIS Scores ([5]; GROUP II: cyclophosphamide 200 mg/kg i.p. plus 500 mg/kg/day p.o., scoring 0 through 6): 2.99+/-0.75
pulmonary fibrosis induced with cyclophosphamide ([5]; mice, oral administration): removed
Clinical impressions ([6]; pulmonary fibrosis diagnosed as caused by asbestos, two subjects): dramatic and highly favorable
Clinical impressions ([6]; pulmonary fibrosis diagnosed as idiopathic, one subject followed for over two years): highly favorable
digital examination of the prostate ([7]; all cases, in 3-4 weeks): detectable reduction in the size of the prostate
Nocturia after therapy ([7]; other two patients, before 3-4 times (every 2-3 hours)): once
clinical results ([7]; three elderly subjects (66-100 years)): very good to excellent
fibrosis of the ventricular myocardium (electrocardiogram maps and nuclear resonance determinations) ([8]; one subject (diagnosed as terminal), after repeated coronary infarcts): objective evidence of the reduction of the fibrosis
survival of the subject ([8]; one subject diagnosed as terminal, drug terminated after 18 months): additional three years
